Assay results published in US6028170A, “Analogs of hirudin” (Baxter International Inc., priority 1998, dated 2000).

Biological target: T1, human alpha-thrombin (Homo sapiens, UniProt P00734)
T1 construct: were reacted with 1.3 picomoles of human alpha-thrombin
Experiment: Thrombin inhibition, residual amidolysis of chromogenic substrate S-2238
Type: biochemical
Settings: 0.13-1.3 picomoles hirudin with 1.3 picomoles human alpha-thrombin, 0.05 M Tris-HCl pH 7.4, 0.1% BSA, 1 hour at 22° C.
Description: Aliquots of the supernatants were diluted with the Tris-BSA buffer and the reaction initiated by addition of S-2238. Reaction velocities were monitored at 410 nanometers and used to determine thrombin activity. Moles of hirudin analog and its derivatives in each assay were determined by radioiodinated hirudin analog tracer.

## rHV2 Phe^3 Gln^33 Tyr^35 Lys^47 Asp^63 [H-Tyr]
  Thrombin Inhibition (Specific Activity: % of H-Tyr): 100 % of H-Tyr
